Experiments:
[1] = Liquid; for mass density: 303.15 K, 101.33 kPa, Pycnometric method; for Normal boiling temperature: Ebulliometric method (Recirculating still)
[2] = excess molar enthalpy (molar enthalpy of mixing); xn = mol fraction of the nth substance listed; conditions: 298.15 K, 101.3 kPa, Liquid, Calvet calorimetry

CC(Cl)(Cl)Cl [1,1,1-trichloroethane]
[1]
Conditions | Normal boiling temperature [°C] | mass density [kg/m3]
– | 74.20 | 1320.97

CC(Cl)(Cl)Cl [1,1,1-trichloroethane] + C[S+](C)[O-]
[2]
Conditions | excess molar enthalpy [kcal/mol]
x1 = 0.0243 | -0.0102
x1 = 0.0579 | -0.023
x1 = 0.109 | -0.0422
x1 = 0.1532 | -0.0563
x1 = 0.1973 | -0.0679
x1 = 0.244 | -0.0796
x1 = 0.2857 | -0.087
x1 = 0.3462 | -0.0932
x1 = 0.4106 | -0.0986
x1 = 0.4797 | -0.0987
x1 = 0.5571 | -0.0945
x1 = 0.6064 | -0.0869
x1 = 0.6632 | -0.0775
x1 = 0.7189 | -0.0666
x1 = 0.7771 | -0.0526
x1 = 0.8537 | -0.0323
x1 = 0.9297 | -0.0102

ClC(Cl)C(Cl)Cl [1,1,2,2-tetrachloroethane]
[1]
Conditions | Normal boiling temperature [°C] | mass density [kg/m3]
– | 145.20 | 1578.59

ClC(Cl)C(Cl)Cl [1,1,2,2-tetrachloroethane] + C[S+](C)[O-]
[2]
Conditions | excess molar enthalpy [kcal/mol]
x1 = 0.0378 | -0.0704
x1 = 0.0688 | -0.149
x1 = 0.1005 | -0.229
x1 = 0.1295 | -0.307
x1 = 0.1325 | -0.309
x1 = 0.1565 | -0.372
x1 = 0.1793 | -0.423
x1 = 0.2167 | -0.494
x1 = 0.2914 | -0.652
x1 = 0.3555 | -0.774
x1 = 0.4111 | -0.839
x1 = 0.4577 | -0.843
x1 = 0.4979 | -0.84
x1 = 0.5577 | -0.816
x1 = 0.6277 | -0.755
x1 = 0.6654 | -0.712
x1 = 0.7123 | -0.664
x1 = 0.7577 | -0.609
x1 = 0.8121 | -0.514
x1 = 0.8537 | -0.435
x1 = 0.9099 | -0.252

ClCCCl [1,2-dichloroethane]
[1]
Conditions | Normal boiling temperature [°C] | mass density [kg/m3]
– | 83.80 | 1238.41

ClCCCl [1,2-dichloroethane] + C[S+](C)[O-]
[2]
Conditions | excess molar enthalpy [kcal/mol]
x1 = 0.0732 | -0.0141
x1 = 0.1296 | -0.0219
x1 = 0.1713 | -0.0257
x1 = 0.2259 | -0.0301
x1 = 0.2783 | -0.0361
x1 = 0.3275 | -0.0458
x1 = 0.3609 | -0.0548
x1 = 0.4054 | -0.0712
x1 = 0.4636 | -0.0899
x1 = 0.5266 | -0.11
x1 = 0.6133 | -0.138
x1 = 0.6613 | -0.143
x1 = 0.7158 | -0.131
x1 = 0.7593 | -0.127
x1 = 0.8032 | -0.106
x1 = 0.861 | -0.0677
x1 = 0.9269 | -0.0285

C[S+](C)[O-] [dimethyl sulfoxide]
[1]
Conditions | Normal boiling temperature [°C] | mass density [kg/m3]
– | 189.04 | 1092.4

ClC(Cl)=C(Cl)Cl [tetrachloroethene]
[1]
Conditions | Normal boiling temperature [°C] | mass density [kg/m3]
– | 121.00 | 1606.39

ClC(Cl)=C(Cl)Cl [tetrachloroethene] + C[S+](C)[O-]
[2]
Conditions | excess molar enthalpy [kcal/mol]
x1 = 0.0544 | 0.0285
x1 = 0.1116 | 0.0584
x1 = 0.171 | 0.0912
x1 = 0.2237 | 0.117
x1 = 0.2735 | 0.141
x1 = 0.3306 | 0.155
x1 = 0.385 | 0.157
x1 = 0.477 | 0.139
x1 = 0.5162 | 0.123
x1 = 0.5695 | 0.105
x1 = 0.6333 | 0.0866
x1 = 0.701 | 0.0645
x1 = 0.7632 | 0.0522
x1 = 0.8252 | 0.0488
x1 = 0.8872 | 0.0456
x1 = 0.9519 | 0.0314

ClC=C(Cl)Cl [trichloroethene]
[1]
Conditions | Normal boiling temperature [°C] | mass density [kg/m3]
– | 87.10 | 1451.42

ClC=C(Cl)Cl [trichloroethene] + C[S+](C)[O-]
[2]
Conditions | excess molar enthalpy [kcal/mol]
x1 = 0.0673 | -0.0229
x1 = 0.1345 | -0.0579
x1 = 0.2079 | -0.106
x1 = 0.3016 | -0.152
x1 = 0.3784 | -0.153
x1 = 0.4461 | -0.147
x1 = 0.4987 | -0.14
x1 = 0.6022 | -0.11
x1 = 0.6641 | -0.102
x1 = 0.7014 | -0.098
x1 = 0.737 | -0.0976
x1 = 0.8114 | -0.0854
x1 = 0.8611 | -0.0706
x1 = 0.9151 | -0.0481
